Data as given in US20240398832A1, “CDK4 AND 6 INHIBITOR IN COMBINATION WITH FULVESTRANT FOR THE TREATMENT OF HORMONE RECEPTOR-POSITIVE, HUMAN EPIDERMAL GROWTH FACTOR RECEPTOR 2-NEGATIVE ADVANCED OR METASTATIC BREAST CANCER IN PATIENTS PREVIOUSLY TREATED WITH A CDK4 AND 6 INHIBITOR” (Eli Lilly and Company, priority 2021, published 2024).

Key:
[1] = tested on: Cancer cell lines that are resistant to palbociclib and tamoxifen; assay: Geminin/Ki67 cell proliferation assay, sequential CDK4 and 6 inhibitor treatment; assay type: cell-based; settings: sequential treatment in combination with ET (fulvestrant or tamoxifen)
Procedure: (§1) Resistant breast cancer cells are prepared by treating breast cancer cell lines with amounts of a CDK4 and 6 inhibitor (either abemaciclib or palbociclib) in combination with 4-OH-tamoxifen (tamoxifen) for 120-144 h. The cells are sorted and screened for resistant cells, defined as geminin positive (GEM+), a marker of S/G2/M cell cycle accumulation. To confirm the resistant phenotype, cell lines are treated with tamoxifen plus the CDK4 and 6 inhibitor used to drive resistance (either abemaciclib or palbociclib). Resistant cancer cells generated by the above method are treated with abemaciclib in combination with an endocrine therapy (ET) comprising either fulvestrant or tamoxifen; or with palbociclib in combination with either fulvestrant or tamoxifen. Cell proliferation and viability are evaluated by Geminin/Ki67, annexin V, and colony formation assays. Mechanisms of resistance and the effects of sequential treatment of the CDK4 and 6 inhibitor in combination with either fulvestrant or tamoxifen are characterized by western blot and RNAseq analysis.

[2] = tested on: Cancer cell lines that are resistant to palbociclib and tamoxifen; assay: Colony formation assay, sequential CDK4 and 6 inhibitor treatment; assay type: cell-based; settings: sequential treatment in combination with ET (fulvestrant or tamoxifen)
Procedure: as §1

[3] = tested on: Cancer cell lines that are resistant to palbociclib and tamoxifen; assay: Annexin V assay, sequential CDK4 and 6 inhibitor treatment; assay type: cell-based; settings: sequential treatment in combination with ET (fulvestrant or tamoxifen)
Procedure: as §1

[4] = tested on: palbociclib-resistant cells; assay: Western blot analysis after sequential treatment; assay type: cell-based; settings: in combination with ET
Procedure: as §1

[5] = tested on: Cancer cell lines that are resistant to palbociclib and tamoxifen; assay: Characterization of effects of sequential treatment (proliferation, pRb signaling, androgen response); assay type: cell-based; settings: sequential treatment in combination with ET
Procedure: as §1

[6] = tested on: HR+, HER2− advanced or metastatic breast cancer; assay type: in vivo, human; settings: investigation arm: abemaciclib 150 mg PO BID and fulvestrant 500 mg IM; expected
Procedure: As detailed below, a clinical trial is conducted as a Phase 3, global, multicenter, randomized, double-blind, placebo-controlled study in participants with HR+, HER2− advanced or metastatic breast cancer. The study will enroll adults who experienced disease progression on a CDK4 and 6 inhibitor and an aromatase inhibitor (AI) therapy in the first-line setting (initial therapy for advanced or metastatic breast cancer), or recurrence on or after a CDK4 and 6 inhibitor with endocrine therapy (ET) in the adjuvant setting.
The trial will include approximately 350 participants that will be randomly assigned to one of two intervention arms that include an investigational arm A: abemaciclib and fulvestrant and a control arm B: placebo and fulvestrant. […]
The primary endpoint, PFS by investigator assessment, is defined as the time from randomization until the first occurrence of documented disease progression as determined by investigator assessment per RECIST 1.1, or death from any cause in the absence of documented progressive disease. […]

[7] = tested on: HR+, HER2− advanced or metastatic breast cancer; settings: abemaciclib 150 mg BID in combination with fulvestrant; patients; cited from earlier work
[8] = tested on: early breast cancer at high risk of recurrence; settings: adjuvant setting; patients with early breast cancer at high risk of recurrence; cited from earlier work
[9] = tested on: abemaciclib-resistant cells; assay: Western blot analysis after sequential treatment; assay type: cell-based; settings: in combination with ET
Procedure: as §1

[10] = tested on: abemaciclib-resistant cells; assay: Characterization of effects of sequential treatment (proliferation, pRb signaling, androgen response); assay type: cell-based; settings: in combination with ET
Procedure: as §1

[11] = tested on: cell lines resistant to abemaciclib and tamoxifen; assay: Cell proliferation and viability assays (Geminin/Ki67, annexin V, colony formation), sequential treatment; assay type: cell-based; settings: sequential treatment in combination with ET
Procedure: as §1

Compound | % GEM+ [1] | Ki67 levels [1] | colony formation ability [2] | apoptosis [3] | FOXMI, a regulator of senescence and apoptosis [4] | cyclin A, a marker of mitosis [4] | androgen response [5] | pRb signaling [5] | proliferation [5] | disease progression [6] | OS benefit compared to fulvestrant/placebo [7] | PFS benefit compared to fulvestrant/placebo [7] | safety profile [7] | distant relapse-free survival (DRFS) [8] | invasive disease-free survival (IDFS) [8] | effects on FOXMI and cyclin A [9] | effects on proliferation, pRb signaling, or androgen response [10] | inhibition effects (% GEM+, colony formation ability, Ki67 levels, apoptosis) [11]
CCN1CCN(Cc2ccc(Nc3ncc(F)c(-c4cc(F)c5nc(C)n(C(C)C)c5c4)n3)nc2)CC1 [abemaciclib, [5-(4-ethyl-piperazin-1-ylmethyl)-pyridin-2-yl]-[5-fluoro-4-(7-fluoro-3-isopropyl-2-methyl-3H-benzoimidazol-5-yl)-pyrimidin-2-yl]-amine] | decreased | decreased | decreased | increased | decrease | decrease | induction | decreased | decrease | delay disease progression | clinically meaningful | clinically meaningful | manageable safety profile | significant improvement | significant improvement |  |  | 
CC(=O)c1c(C)c2cnc(Nc3ccc(N4CCNCC4)cn3)nc2n(C2CCCC2)c1=O [palbociclib, 6-acetyl-8-cyclopentyl-5-methyl-2-{[5-(piperazin-1-yl)pyridine-2-yl]amino}pyrido[2,3,-d]pyrimidin-7 (8H)-one] |  |  |  |  |  |  |  |  |  |  |  |  |  |  |  | do not exhibit similar effects | do not exhibit similar effects | do not show similar inhibition effects
